In patent publication US11236110B2 (priority 2017, dated 2022):

Legend:
[1] = Preliminary miscibility assays on the free base in selected solvents; assay type: physicochemical; conditions: for Miscibility: number of volumes needed to dissolve the oil at room temperature
From the text: Preliminary Miscibility Assays on (R)-9-(2,5-difluorophenethyl)-4-ethyl-2-methyl-1-oxa-4,9-diazaspiro[5.5]undecan-3-One Free Base

[2] = acidic counter-ion; cited from earlier work

**Q.** With `CCN1CC2(CCN(CCc3cc(F)ccc3F)CC2)O[C@H](C)C1=O` [(R)-9-(2,5-difluorophenethyl)-4-ethyl-2-methyl-1-oxa-4,9-diazaspiro[5.5]undecan-3-one] as the compound, how does the “miscibility of the oil with the solvents tested” value ([1]; room temperature, all the solvents tested (Table 2)) read?
**A.** freely miscible

**Q.** What about the Miscibility ([1]; solvent H2O) of the same compound?
**A.** 10 V

**Q.** And the Miscibility ([1]; solvent IPA (isopropanol))?
**A.** 10 V

**Q.** What about the Miscibility ([1]; solvent MIK (methyl isobutyl ketone)) of the same compound?
**A.** 10 V

**Q.** And the Miscibility ([1]; solvent THF (tetrahydrofuran))?
**A.** 10 V

**Q.** And the Miscibility ([1]; solvent Toluene)?
**A.** 10 V

**Q.** With `O=C(O)[C@@H](O)c1ccccc1` [(S)-(+)-Mandelic acid] as the compound, how does the pKa1 [2] read?
**A.** 3.4

**Q.** For `Br` [Hydrobromic acid], which pKa1 [2] is on record?
**A.** −6

**Q.** Which pKa1 [2] does the source give for `O=[N+]([O-])O` [Nitric acid] here?
**A.** −1.4
